Common to all, as to assay type: in vivo
The subject of one series is corn. Nature of the series: Test Example 4: effect on crop by soil treatment (symbol c). The settings on record: for c: corn, effect grade on crop: 320 g/ha; for Effect on crop grade, c: corn / c: corn, effect on crop grade / c (corn) effect on crop grade: application herbicide amount 320 g/ha. Put shortly:
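Crop seed is sown in spots together with several weed species in a box of sterilized diluvial soil. It is covered by about 1.5 cm of soil and kept in a greenhouse held between 25° C. and 30° C.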

The subject of another series is Leptochloa chinensis. Nature of the series: Test Example 3: herbicidal effect by foliage application, Wagner pot (symbol D). The settings on record: application herbicide amount 320 g/ha; for D (Leptochloa chinensis) herbicidal effect grade: Table 24. Put shortly: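 Foliar spray of water-diluted emulsion formulation at a predetermined herbicide amount onto 14-day-old plants in flooded alluvial soil (water depth 0.1–0.5 cm), greenhouse 25–30 °C; rice sown alongside. Scored 3 wk post-application on set criteria.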

The next series has as its system Lolium multiflorum Lam. Description: Test Example 4: herbicidal effect by soil treatment (symbol K). The method, boiled down:
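Seeds were sown in sterilized diluvial soil, covered with about 1.5 cm of soil, and the soil surface was sprayed with a water-diluted emulsion of the compound at a predetermined rate. Plants grew in a greenhouse at 25° C. to 30° C.; effects were scored visually 3 weeks after application.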

Where [1] appears, read: application herbicide amount 320 g/ha.

Regarding `CON=C(C)CC1CC(OC(=O)N2CCOCC2)=C(c2c(C)cc(C)cc2C)C1=O` (stereo not drawn) [1-104], the “c: corn, effect grade on crop” value with corn was 1 (Herbicidal ratio of 5% or higher and lower than 20%). For the same molecule, the “herbicidal effect on D (Leptochloa chinensis), grade 0-5” value (“herbicidal effect on D” for short) with Leptochloa chinensis is recorded as 5 (Herbicidal ratio of 90% or more (almost completely withered)). Also, the “K: Lolium multiflorum Lam., herbicidal effect grade” value in the series on Lolium multiflorum Lam. (320 g/ha) was 5 (Herbicidal ratio of 90% or more (almost completely withered)).
On to `COC(=O)C(C(=O)C1CC1)C1CC(O)=C(c2c(C)cc(Br)cc2C)C1=O` (mixture of isomers) [10-002], for which the “Effect on crop grade, c: corn” value with corn is on record as 0 (Herbicidal ratio of 5% or lower (almost no effect)). In addition, the “D (Leptochloa chinensis) herbicidal effect grade” value with Leptochloa chinensis is listed as 5 (Herbicidal ratio of 90% or more (almost completely withered)). Also, the “Herbicidal effect grade, K: Lolium multiflorum Lam.” value (“Herbicidal effect grade, K” below) in the series on Lolium multiflorum Lam. (setting [1]) was 4 (Herbicidal ratio of 70% or higher and lower than 90%).
On to `CON=C(CC1CC(O)=C(c2c(C)cc(-n3cc(Cl)cn3)cc2C)C1=O)C1CC1` (stereo not drawn) [9-007], for which, in the series on corn, the “Effect on crop grade, c: corn” value was 0 (Herbicidal ratio of 5% or lower (almost no effect)). Moreover, in the series on Leptochloa chinensis, the “D (Leptochloa chinensis) herbicidal effect grade” value is 5 (Herbicidal ratio of 90% or more (almost completely withered)). Further, the “Herbicidal effect grade, K” value in the series with Lolium multiflorum Lam. (setting [1]) is reported as 5 (Herbicidal ratio of 90% or more (almost completely withered)).
As for `COCCON=C(CC1CC(O)=C(c2c(C)cc(-n3cc(Cl)cn3)cc2C)C1=O)C1CC1` (stereo not drawn) [9-020], the “Effect on crop grade, c: corn” value with corn is reported as 0 (Herbicidal ratio of 5% or lower (almost no effect)). Moreover, the “D (Leptochloa chinensis) herbicidal effect grade” value with Leptochloa chinensis was 5 (Herbicidal ratio of 90% or more (almost completely withered)). In the series with Lolium multiflorum Lam. (setting [1]), the “Herbicidal effect grade, K” value is on record as 5 (Herbicidal ratio of 90% or more (almost completely withered)).
As for `CC(CC1CC(O)=C(c2c(C)cc(C)cc2C)C1=O)=NOCc1ccccc1C(F)(F)F` (stereo not drawn) [1-116], the “c: corn, effect grade on crop” value with corn is reported as 0 (Herbicidal ratio of 5% or lower (almost no effect)). For the same molecule, in the series on Leptochloa chinensis, the “herbicidal effect on D” value was 3 (Herbicidal ratio of 40% or higher and lower than 70%). Moreover, the “K: Lolium multiflorum Lam., herbicidal effect grade” value in the series on Lolium multiflorum Lam. (320 g/ha) is 4 (Herbicidal ratio of 70% or higher and lower than 90%).
Take `C=C(C)CN(CC)C(=O)OC1=C(c2c(C)cc(C)cc2C)C(=O)C(CC(C)=NOC)C1` (stereo not drawn) [1-130]: in the series with corn, the “c: corn, effect grade on crop” value is recorded as 0 (Herbicidal ratio of 5% or lower (almost no effect)). Besides, in the series with Leptochloa chinensis, the “herbicidal effect on D” value is 5 (Herbicidal ratio of 90% or more (almost completely withered)). Besides, in the series with Lolium multiflorum Lam. (320 g/ha), the “K: Lolium multiflorum Lam., herbicidal effect grade” value was 3 (Herbicidal ratio of 40% or higher and lower than 70%).
In the case of `CON=C(C)CON=C(C)CC1CC(O)=C(c2c(C)cc(C)cc2C)C1=O` (stereo not drawn) [1-105], in the series on corn, the “c: corn, effect grade on crop” value is 1 (Herbicidal ratio of 5% or higher and lower than 20%). In addition, the “herbicidal effect on D” value in the series on Leptochloa chinensis was 5 (Herbicidal ratio of 90% or more (almost completely withered)). The “K: Lolium multiflorum Lam., herbicidal effect grade” value in the series with Lolium multiflorum Lam. (320 g/ha) is listed as 5 (Herbicidal ratio of 90% or more (almost completely withered)).
On to `CC(CC1CC(O)=C(c2c(C)cc(C)cc2C)C1=O)=NOCc1cccc(C(F)(F)F)c1` (stereo not drawn) [1-117], for which, in the series on corn, the “c: corn, effect grade on crop” value is listed as 0 (Herbicidal ratio of 5% or lower (almost no effect)). Also, the “herbicidal effect on D” value in the series with Leptochloa chinensis was 4 (Herbicidal ratio of 70% or higher and lower than 90%). Further, the “K: Lolium multiflorum Lam., herbicidal effect grade” value in the series on Lolium multiflorum Lam. (320 g/ha) was 4 (Herbicidal ratio of 70% or higher and lower than 90%).
Regarding `CON=C(C)CC1CC(OC(=O)CSc2ccccc2)=C(c2c(C)cc(C)cc2C)C1=O` (stereo not drawn) [1-134], the “c: corn, effect grade on crop” value in the series on corn was 5 (Herbicidal ratio of 90% or more (almost completely withered)). Further, the “herbicidal effect on D” value with Leptochloa chinensis is given as 5 (Herbicidal ratio of 90% or more (almost completely withered)). Besides, the “K: Lolium multiflorum Lam., herbicidal effect grade” value in the series with Lolium multiflorum Lam. (320 g/ha) is given as 5 (Herbicidal ratio of 90% or more (almost completely withered)).
In the case of `CON=C(CC1CC(OC(=O)N2CCOCC2)=C(c2c(C)cc(C)cc2OC)C1=O)C1CC1` (mixture of isomers) [13-005], the “c: corn, effect on crop grade” value in the series on corn is listed as 0 (Herbicidal ratio of 5% or lower (almost no effect)). Further, the “D (Leptochloa chinensis) herbicidal effect grade” value in the series with Leptochloa chinensis is 5 (Herbicidal ratio of 90% or more (almost completely withered)). Also, the “K: Lolium multiflorum Lam., herbicidal effect grade” value with Lolium multiflorum Lam. (setting [1]) is 5 (Herbicidal ratio of 90% or more (almost completely withered)).
As to `CON=C(CC1CC(O)=C(c2c(C)cc(C)cc2C)C1=O)c1ccc(F)cc1` (stereo not drawn) [1-133], in the series on corn, the “c: corn, effect grade on crop” value is 0 (Herbicidal ratio of 5% or lower (almost no effect)). For the same molecule, the “herbicidal effect on D” value in the series with Leptochloa chinensis is recorded as 0 (Herbicidal ratio of 5% or lower (almost no effect)). In the series with Lolium multiflorum Lam. (320 g/ha), the “K: Lolium multiflorum Lam., herbicidal effect grade” value is 3 (Herbicidal ratio of 40% or higher and lower than 70%).
In the case of `CON=C(CC1CC(O)=C(c2c(C)cc(C)cc2OC)C1=O)C1CC1` (mixture of isomers) [13-002], in the series on corn, the “c: corn, effect on crop grade” value was 5 (Herbicidal ratio of 90% or more (almost completely withered)). Moreover, the “D (Leptochloa chinensis) herbicidal effect grade” value in the series with Leptochloa chinensis is recorded as 5 (Herbicidal ratio of 90% or more (almost completely withered)). Further, in the series with Lolium multiflorum Lam. (setting [1]), the “K: Lolium multiflorum Lam., herbicidal effect grade” value is 5 (Herbicidal ratio of 90% or more (almost completely withered)).
On to `CC(CC1CC(O)=C(c2c(C)cc(C)cc2C)C1=O)=NOCC[S+](C)[O-]` (stereo not drawn) [1-125], for which, in the series on corn, the “c: corn, effect grade on crop” value was 2 (Herbicidal ratio of 20% or higher and lower than 40%). For the same molecule, in the series on Leptochloa chinensis, the “herbicidal effect on D” value is listed as 5 (Herbicidal ratio of 90% or more (almost completely withered)). For the same molecule, in the series on Lolium multiflorum Lam. (320 g/ha), the “K: Lolium multiflorum Lam., herbicidal effect grade” value is on record as 5 (Herbicidal ratio of 90% or more (almost completely withered)).
With `C=CCOC1=C(c2c(C)cc(C)cc2C)C(=O)C(CC(C)=NOC)C1` (stereo not drawn) [1-007], the “c (corn) effect on crop grade” value with corn is on record as 0 (Herbicidal ratio of 5% or lower (almost no effect)). The “herbicidal effect on D” value with Leptochloa chinensis is 5 (Herbicidal ratio of 90% or more (almost completely withered)). Further, the “K (Lolium multiflorum Lam.) herbicidal effect grade” value in the series with Lolium multiflorum Lam. (setting [1]) was 2 (Herbicidal ratio of 20% or higher and lower than 40%).
As for `CON=C(C)CC1CC(OS(C)(=O)=O)=C(c2c(C)cc(C)cc2C)C1=O` (stereo not drawn) [1-006], the “c (corn) effect on crop grade” value with corn was 1 (Herbicidal ratio of 5% or higher and lower than 20%). The “herbicidal effect on D” value in the series on Leptochloa chinensis is on record as 5 (Herbicidal ratio of 90% or more (almost completely withered)). For the same molecule, in the series on Lolium multiflorum Lam. (setting [1]), the “K (Lolium multiflorum Lam.) herbicidal effect grade” value is 5 (Herbicidal ratio of 90% or more (almost completely withered)).
Take `CON=C(C)CC1CC(OC(=O)C(CSC)=NOC)=C(c2c(C)cc(C)cc2C)C1=O` (stereo not drawn) [1-098]: the “c: corn, effect grade on crop” value with corn is listed as 5 (Herbicidal ratio of 90% or more (almost completely withered)). In the series with Leptochloa chinensis, the “herbicidal effect on D” value is recorded as 5 (Herbicidal ratio of 90% or more (almost completely withered)). Further, in the series with Lolium multiflorum Lam. (320 g/ha), the “K: Lolium multiflorum Lam., herbicidal effect grade” value was 5 (Herbicidal ratio of 90% or more (almost completely withered)).
Regarding `CC(CC1CC(O)=C(c2c(C)cc(C)cc2C)C1=O)=NOCc1ccccc1[N+](=O)[O-]` (stereo not drawn) [1-119], the “c: corn, effect grade on crop” value in the series on corn is 0 (Herbicidal ratio of 5% or lower (almost no effect)). Further, the “herbicidal effect on D” value in the series with Leptochloa chinensis is 4 (Herbicidal ratio of 70% or higher and lower than 90%). Moreover, the “K: Lolium multiflorum Lam., herbicidal effect grade” value in the series on Lolium multiflorum Lam. (320 g/ha) is listed as 5 (Herbicidal ratio of 90% or more (almost completely withered)).
Regarding `COCCON=C(CC1CC(O)=C(c2c(C)cc(-n3cc(Cl)cn3)cc2C)C1=O)C(C)C` (stereo not drawn) [9-022], the “Effect on crop grade, c: corn” value in the series on corn was 1 (Herbicidal ratio of 5% or higher and lower than 20%). Further, the “D (Leptochloa chinensis) herbicidal effect grade” value with Leptochloa chinensis was 5 (Herbicidal ratio of 90% or more (almost completely withered)). In addition, the “Herbicidal effect grade, K” value in the series with Lolium multiflorum Lam. (setting [1]) is recorded as 0 (Herbicidal ratio of 5% or lower (almost no effect)).

For the origin of these results see US11000033B2, “Ketone or oxime compound, and herbicide” (NISSAN CHEMICAL CORPORATION, priority 2014, dated 2021).
